Laboratory results taken from US20250107533A1, “FUNGICIDAL COMPOSITIONS” (SYNGENTA CROP PROTECTION AG, priority 2021, published 2025).

Test system: Phakopsora pachyrhizi
Assay: Soybean leaf disk test against Asian soybean rust (Example 1)
Assay type: in vivo
Conditions: soybean leaf disks, assessed 12 days after inoculation; for inhibition at 0.74 ppm / inhibition at 0.25 ppm / inhibition at 2.22 ppm: Phakopsora pachyrhizi, foliar, 288 h, component (B) alone; for (A) inhibition: Aureobasidin A alone
Protocol: The compositions according to the invention are tested for their biological (fungicidal) activity using application rates wherein the component (A) is applied at a rate of from 25 g a.i./ha to 500 g a.i./ha in association with 10 g a.i./ha to 500 g a.i./ha of component (B).
The compositions according to the invention are tested for their biological (fungicidal) activity as dimethylsulfoxide (DMSO) solutions the protocols as set forth in the examples below. A standard description of the liquid culture tests is provided in Example 1.
Compounds to be tested were prepared as DMSO solutions (max. 10 mg/mL) which were diluted to the appropriate concentration with 0.025% TWEEN 20® surfactant just before spraying. Soybean leaf disks were placed on agar in multiwell plates (24-well format) and sprayed with test solutions. After 24 hours drying, the leaf disks were inoculated with a spore suspension of the fungus. The disease severity of a compound or mixture was assessed 12 days after inoculation and described as percent activity relative to the untreated check leaf disks.

## CCOC(=O)c1cnn(Cc2ccc(-c3noc(C(F)(F)F)n3)cc2)c1 [B.01, ethyl 1-[[4-[5-(trifluoromethyl)-1,2,4-oxadiazol-3-yl]phenyl]methyl]pyrazole-4-carboxylate]
  inhibition at 0.74 ppm: 50%

## CNC(=O)N(Cc1ccc(-c2noc(C(F)(F)F)n2)cc1)OC [B.05, 1-methoxy-3-methyl-1-[[4-[5-(trifluoromethyl)-1,2,4-oxadiazol-3-yl]phenyl]methyl]urea]
  inhibition at 0.25 ppm: 0%
  inhibition at 0.74 ppm: 50%

## CCN(Cc1ccc(-c2noc(C(F)(F)F)n2)cc1)C(=O)C(C)C [B.04, N-ethyl-2-methyl-N-[[4-[5-(trifluoromethyl)-1,2,4-oxadiazol-3-yl]phenyl]methyl]propanamide]
  inhibition at 0.25 ppm: 0%
  inhibition at 0.74 ppm: 0%
  inhibition at 2.22 ppm: 35%

## CONC(=O)N(Cc1ccc(-c2noc(C(F)(F)F)n2)cc1)OC [B.06, 1,3-dimethoxy-1-[[4-[5-(trifluoromethyl)-1,2,4-oxadiazol-3-yl]phenyl]methyl]urea]
  inhibition at 0.25 ppm: 0%
  inhibition at 0.74 ppm: 0%

## Aureobasidin A
2.5 ppm
  (A) inhibition: 62%
7.4 ppm
  (A) inhibition: 88%

## CON(Cc1ccc(-c2noc(C(F)(F)F)n2)cc1)C(=O)C1CC1 [B.02, N-methoxy-N-[[4-[5-(trifluoromethyl)-1,2,4-oxadiazol-3-yl]phenyl]methyl]cyclopropanecarboxamide]
  inhibition at 0.74 ppm: 10%
  inhibition at 2.22 ppm: 35%

## COC(C)C(=O)N(Cc1ccc(-c2noc(C(F)(F)F)n2)cc1)OC (stereo not shown) [B.03, N,2-dimethoxy-N-[[4-[5-(trifluoromethyl)-1,2,4-oxadiazol-3-yl]phenyl]methyl]propanamide]
  inhibition at 0.74 ppm: 10%
  inhibition at 2.22 ppm: 35%

## CCNC(=O)N(Cc1ccc(-c2noc(C(F)(F)F)n2)cc1)OC [B.07, 3-ethyl-1-methoxy-1-[[4-[5-(trifluoromethyl)-1,2,4-oxadiazol-3-yl]phenyl]methyl]urea]
  inhibition at 0.25 ppm: 0%
  inhibition at 0.74 ppm: 35%

## CCC(=O)NCc1ccc(-c2noc(C(F)(F)F)n2)cc1 [B.08, N-[[4-[5-(trifluoromethyl)-1,2,4-oxadiazol-3-yl]phenyl]methyl]propanamide]
  inhibition at 0.25 ppm: 0%
  inhibition at 0.74 ppm: 20%
  inhibition at 2.22 ppm: 60%
